SMILES strings stand for the structures. Read-outs that look alike come from different tables or passages of the source.

As usually defined, the IC50 is the concentration at which inhibition is half-maximal.

One test relates to BCL-2. The experiment in a line: In vitro transcription-translation (IVTT) assay, BCL-2 reporter. Conditions: HeLa S3 lysate, sfGFP/mCherry ratio, 2 hrs at 30° C. The test is classed as biochemical. The method in brief: (§1)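 Reporter: mCherry, P2A, then 3×FLAG-target peptide-sfGFP fusion, IRES-initiated; HeLa S3 lysate IVTT; cpd dilutions 30 μM−0.1 μM half-log in 100% DMSO (dilution-plate conc); DNA added last; 2 h, 30° C; PBS quench.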

The test system of the next test is MYC. Nature of the test: In vitro transcription-translation (IVTT) assay, MYC reporter. In kind it is biochemical. Conditions: HeLa S3 lysate, 2 hrs at 30° C. The method in brief:
as §1

A further test deals with CCND1. The experiment in a line: In vitro transcription-translation (IVTT) assay, CCND1 reporter. In kind it is biochemical. Conditions: HeLa S3 lysate, 2 hrs at 30° C. The method in brief: as §1
The next test has as its system MCL-1. Nature of the test: In vitro transcription-translation (IVTT) assay, MCL-1 reporter. In kind it is biochemical. Conditions: HeLa S3 lysate, 2 hrs at 30° C. In outline:
as §1

For another test, the system named is ALK. Nature of the test: In vitro transcription-translation (IVTT) assay, ALK reporter. Conditions: HeLa S3 lysate, sfGFP/mCherry ratio, 2 hrs at 30° C. In kind it is biochemical. In outline:
as §1

The subject of a further test is KRAS G12D. The experiment in a line: In vitro transcription-translation (IVTT) assay, KRAS G12D reporter. In kind it is biochemical. Conditions: HeLa S3 lysate, sfGFP/mCherry ratio, 2 hrs at 30° C. The method in brief:
as §1

In a further test the test system is HEK 293T. Nature of the test: Cell viability (CellTiter-Fluor), HEK 293T. In kind it is cell-based. The conditions noted are these: Homo sapiens, 24-72 hrs. On the procedure:
(§2) Count and dispense 2,000-10,000 cells per well (100 μL volume) in black 96-well tissue culture microplate and let cells adhere overnight. Add compound dissolved in 100% DMSO to each well as needed and incubate cells in standard culture conditions for 24-72 hrs. Final DMSO concentration in each well should be 0.1-0.5%. At the desired time point, gently aspirate compound containing media and replace with PBS to wash. Repeat wash step for 2 total washes. Remove PBS and add 100 μL CellTiter-Fluor reagent (Promega) reagent to each well. Seal plate and incubate 1 hr at room temperature with orbital shaking. Analyze fluorescence using plate reader to quantify viable cells compared with vehicle (DMSO) control.

In another test the test system is HPAF-II. The experiment in a line: Cell viability (CellTiter-Fluor), HPAF-II. In kind it is cell-based. Conditions: Homo sapiens, 24-72 hrs. How it is done: as §2
The next test has as its system KLE. The experiment in a line: Cell viability (CellTiter-Fluor), KLE. The test is classed as cell-based. Conditions: Homo sapiens, 24-72 hrs. On the procedure:
as §2

Another test concerns LS411N. Nature of the test: Cell viability (CellTiter-Fluor), LS411N. The conditions noted are these: Homo sapiens, LS-411N, 24-72 hrs. In kind it is cell-based. How it is done:
as §2

For a further test, the system named is MCF7. The experiment in a line: Cell viability (CellTiter-Fluor), MCF7. In kind it is cell-based. The conditions noted are these: Homo sapiens, 24-72 hrs. On the procedure: as §2
For the next test, the system named is NCI-H1915. Nature of the test: Cell viability (CellTiter-Fluor), NCI-H1915. In kind it is cell-based. Conditions: 24-72 hrs. How it is done:
as §2

In another test the test system is HCC38. Nature of the test: Cell viability (CellTiter-Fluor), HCC38. In kind it is cell-based. Conditions: Homo sapiens, 24-72 hrs. On the procedure: as §2
Another test deals with HEPG2. The experiment in a line: Cell viability (CellTiter-Fluor), HEPG2. The test is classed as cell-based. The conditions noted are these: Homo sapiens, 24-72 hrs. On the procedure: as §2
Another test relates to KATO-III. The experiment in a line: Cell viability (CellTiter-Fluor), KATO-III. In kind it is cell-based. Conditions: Homo sapiens, 24-72 hrs. On the procedure:
as §2

Another test relates to MS751. The experiment in a line: Cell viability (CellTiter-Fluor), MS751. The test is classed as cell-based. The conditions noted are these: 24-72 hrs. On the procedure: as §2
For the next test, the system named is T47D. The experiment in a line: Cell viability (CellTiter-Fluor), T47D. The test is classed as cell-based. The conditions noted are these: Homo sapiens, 24-72 hrs. On the procedure: as §2
In the next test the test system is CCNTB1. The experiment in a line: In vitro transcription-translation (IVTT) assay, CCNTB1 reporter. In kind it is biochemical. Conditions: HeLa S3 lysate, 2 hrs at 30° C. In outline: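 IC50 fitted from the sfGFP/mCherry fluorescence ratio, normalized to no-drug control after no-DNA background subtraction. Reactions ran 2 h at 30° C in HeLa S3 cell lysate with reporter plasmid DNA and half-log compound titrations (30 μM−0.1 μM, in DMSO).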

The next test relates to cGAS. Nature of the test: In vitro transcription-translation (IVTT) assay, cGAS reporter. In kind it is biochemical. Conditions: HeLa S3 lysate, 2 hrs at 30° C. On the procedure:
(§3) Each preparation takes 8 cell pellets (4 ml packed volume each, approximately 1.0×10^9 cells per pellet). Thaw cell pellets from −80° C. on ice for 90 mins. Lay pellets horizontally on top of the ice and rotate every 30 mins to ensure even thawing. Once thawed, add 4 mL of cold lysis buffer to each pellet, and using a serological pipet, gently pipet up and down to break up clumps. Incubate resuspended cells in ice for an additional 30 mins (plunged into ice). During 30 min incubation, rinse and RNase-zap (Ambion) glass dounces (use loose pestle “A”), gently dry and place on ice until needed. Prepare RNase-free Eppendorf tubes for spinning and for batch storage. […]
(§4) In vitro transcription-translation assay setup: Each assay includes a master mix containing lysate and shared components, a 96-well plate containing compound titrations for testing, a 96-well DNA plate with reporter constructs to be tested, 96-well skirted PCR plates, and 96-well flat-bottom, black, fluorescent assay plates. […] After 2 hrs, quench the assay using 45 μL of PBS, and transfer 50 μL to a flat-bottom black microplate Quantify the sfGFP and mCherry signals from each well on each plate, taking 3 reads of each plate, and perform data analysis below.
(§5) In vitro transcription-translation assay data analysis: Each plate is read three times in channels for both sfGFP and mCherry signals. […]

A further test relates to STING. The experiment in a line: In vitro transcription-translation (IVTT) assay, STING reporter. In kind it is biochemical. Conditions: HeLa S3 lysate, 2 hrs at 30° C. On the procedure:
as §3, §4, §5

The next test has as its system JAK1. The experiment in a line: In vitro transcription-translation (IVTT) assay, JAK1 reporter. In kind it is biochemical. Conditions: HeLa S3 lysate, 2 hrs at 30° C. How it is done:
as §3, §4, §5

Another test relates to NFKB1. The experiment in a line: In vitro transcription-translation (IVTT) assay, NFKB1 reporter. The test is classed as biochemical. The conditions noted are these: HeLa S3 lysate, 2 hrs at 30° C. How it is done:
as §3, §4, §5

[1] abbreviates: IVTT assay, MYC reporter, normalized sfGFP/mCherry ratio, half-log dilutions 30 μM-0.1 μM.

As for `COc1ccc(C[C@H]2NC[C@H](O)[C@H]2OC(=O)NCc2ccccc2)cc1` [V187190, (2R,3S,4S)-4-hydroxy-2-[(4-methoxyphenyl)methyl]pyrrolidin-3-yl N-benzylcarbamate; trifluoroacetic acid], the IC50 with BCL-2, in the test on MYC (sfGFP/mCherry ratio), with CCND1 (sfGFP/mCherry ratio), in the test with MCL-1 (sfGFP/mCherry ratio), in the test with ALK and in the test on KRAS G12D was below 10 µM in each case. The IC50 with HEK 293T was below 0.25 µM; with HPAF-II, 0.25 to 1 µM; with KLE it was below 0.25 µM; in the test on LS411N, below 0.25 µM; with MCF7, below 0.25 µM; in the test on NCI-H1915, below 0.25 µM. In addition, the IC50 with HCC38 is 0.25 to 1 µM; in the test on HEPG2, below 0.25 µM; in the test on KATO-III it was below 0.25 µM; with MS751, below 0.25 µM; with T47D, below 0.25 µM.
For `COc1ccc(C[C@H]2NC[C@H](O)[C@H]2OC(=O)NCCc2cn[nH]c2)cc1` [V187509, (2R,3S,4S)-4-hydroxy-2-[(4-methoxyphenyl)methyl]pyrrolidin-3-yl N-[2-(1H-pyrazol-4-yl)ethyl]carbamate], the IC50 was below 10 µM in the test on BCL-2; below 10 µM in the test with MYC (sfGFP/mCherry ratio); below 10 µM in the test on CCND1 (sfGFP/mCherry ratio); below 10 µM in the test with MCL-1 (sfGFP/mCherry ratio); below 10 µM in the test with KRAS G12D; below 0.25 µM with HEK 293T. The IC50 in the test with HPAF-II, in the test on KLE, in the test on LS411N, with MCF7, in the test with NCI-H1915 and with HCC38 was 0.25 to 1 µM in each case. In addition, the IC50 is 1 to 4 µM with HEPG2, 0.25 to 1 µM with KATO-III, below 0.25 µM in the test on MS751 and 0.25 to 1 µM with T47D.
Regarding `COc1ccc(C[C@H]2NC[C@H](O)[C@H]2OC(=O)NCc2c[nH]nn2)cc1` [V187536, (2R,3S,4S)-4-hydroxy-2-[(4-methoxyphenyl)methyl]pyrrolidin-3-yl N-(1H-1,2,3-triazol-4-ylmethyl) carbamate; trifluoroacetic acid], the IC50 was below 10 µM in the test on MYC (sfGFP/mCherry ratio); below 10 µM in the test with CCND1 (sfGFP/mCherry ratio); below 10 µM with MCL-1 (sfGFP/mCherry ratio); below 10 µM in the test on ALK; below 10 µM in the test with KRAS G12D; 0.25 to 1 µM with HEK 293T. In addition, the IC50 with HPAF-II, in the test with KLE, in the test on LS411N, with MCF7, in the test with NCI-H1915 and with HCC38 was 1 to 4 µM in each case. Besides, the IC50 is 1 to 4 µM in the test with HEPG2, 1 to 4 µM with KATO-III, 0.25 to 1 µM in the test on MS751 and 1 to 4 µM in the test on T47D.
In the case of `COc1ccc(C[C@H]2NC[C@H](O)[C@H]2OC(=O)NCc2ccncc2)cc1` [V187987, (2R,3S,4S)-4-hydroxy-2-[(4-methoxyphenyl)methyl]pyrrolidin-3-yl N-(pyridin-4-ylmethyl)carbamate], the IC50 is below 10 µM in the test on BCL-2; below 10 µM in the test on MYC (sfGFP/mCherry ratio); below 10 µM with CCND1 (sfGFP/mCherry ratio); below 10 µM with MCL-1 (sfGFP/mCherry ratio); below 0.25 µM in the test on HEK 293T; 0.25 to 1 µM in the test on HPAF-II. Moreover, the IC50 is 0.25 to 1 µM in the test on KLE; below 0.25 µM in the test on LS411N; below 0.25 µM in the test with MCF7; below 0.25 µM in the test on NCI-H1915; 0.25 to 1 µM with HCC38; 1 to 4 µM in the test with HEPG2. In addition, the figures for the IC50 in the test on KATO-III, in the test on MS751 and in the test with T47D were 0.25 to 1 µM, 0.25 to 1 µM and below 0.25 µM, respectively.
With `O=C(NCc1ccccc1)O[C@@H]1[C@@H](O)CN[C@@H]1Cc1ccc(-c2ccc3c(c2)CNC3)cc1` [V188347, (2R,3S,4S)-2-{[4-(2,3-dihydro-1H-isoindol-5-yl)phenyl]methyl}-4-hydroxypyrrolidin-3-yl N-benzylcarbamate], the IC50 is below 10 µM with MYC (setting [1]); below 10 µM with CCND1 (IVTT); below 10 µM in the test with MCL-1 (IVTT, read-out: MCL1 IC50); below 10 µM in the test on CCNTB1; below 10 µM with cGAS; below 10 µM in the test on STING. Further, the IC50 in the test on JAK1 and in the test with NFKB1 was below 10 µM in each case.
For `O=C(NCc1cccc(F)c1)O[C@@H]1[C@@H](O)CN[C@@H]1Cc1ccc(-c2cnco2)cc1` [V190545, (2R,3S,4S)-4-hydroxy-2-{[4-(1,3-oxazol-5-yl)phenyl]methyl}pyrrolidin-3-yl N-[(3-fluorophenyl)methyl]carbamate], the IC50 with MYC (setting [1]) is below 10 µM; with CCND1 (IVTT), below 10 µM; in the test with MCL-1 (IVTT, read-out: MCL1 IC50), below 10 µM; in the test on CCNTB1, below 10 µM; in the test on cGAS, below 10 µM; with STING it was below 10 µM. The same molecule showed an IC50 with JAK1 below 10 µM.

(Values after patent US20250129021A1, “SMALL MOLECULE PROTEIN SYNTHESIS MODULATORS” (Interdict Bio, Inc., priority 2023, published 2025).)
